Experimental data taken from patent US11034672B1, “Tyrosine kinase inhibitor compositions, methods of making and methods of use” (Black Diamond Therapeutics, Inc., priority 2018, dated 2021).

Columns and labels:
Assay type in all cases: cell-based
[1] = molecular target: T1, EGFR V3 (Homo sapiens, UniProt P00533, DELINS30-297G); assay: Activity for inhibiting EGFR (Table A), EGFR V3 (EGFR-Viii); settings: read-out: EGFR V3, potency code (IC50)
T1 construct: expressed in transfected cells; host or cells: BaF3 (murine pro-B), retroviral pMXs-IRES-Blasticidin

[2] = molecular target: T2, EGFR WT (Homo sapiens, UniProt P00533); assay: BaF3 cell proliferation assay, EGFR WT (Table A); settings: potency code, 3 days, CellTiterGlo, read-out: EGFR WT (Activity for Inhibiting EGFR)
In short: (§1)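 BaF3 cells were infected twice with retrovirus carrying the mutant (pMXs-IRES-Blasticidin, 8 μg/ml polybrene, spinoculation), then selected in 10 μg/ml blasticidin for one week. Resistant pools were then grown without IL-3 to select for IL-3-independent growth. EC50 values were derived from proliferation.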

[3] = molecular target: T3, HER2 YVMA (Homo sapiens, UniProt P04626, INS775YVMA); assay: BaF3 cell proliferation assay, HER2 YVMA (Table B); settings: potency code, 3 days, CellTiterGlo, read-out: HER2 YVMA (Activity for Inhibiting HER2)
T3 construct: expressed in transfected cells; host or cells: BaF3 (murine pro-B)

[4] = molecular target: T2, EGFR WT; assay: Activity for inhibiting EGFR (Table A), EGFR WT; settings: read-out: EGFR WT, potency code (IC50)
[5] = molecular target: T4, HER2 S310F (Homo sapiens, UniProt P04626, S310F); assay: Activity for inhibiting HER2 (Table B), HER2 S310F; settings: read-out: HER2 S310F, potency code (IC50)
T4 construct: expressed in transfected cells; host or cells: BaF3 (murine pro-B)
Experimental: (§2) EC50 values were determined with the same application.

[6] = molecular target: T4, HER2 S310F; assay: BaF3 cell proliferation assay, HER2 S310F (Table B); settings: potency code, 3 days, CellTiterGlo, read-out: HER2 S310F (Activity for Inhibiting HER2)
[7] = molecular target: T1, EGFR V3; assay: BaF3 cell proliferation assay, EGFR V3 (Table A); settings: potency code, 3 days, CellTiterGlo, read-out: EGFR V3 (Activity for Inhibiting EGFR)
In short: as §1

[8] = molecular target: T3, HER2 YVMA; assay: Activity for inhibiting HER2 (Table B), HER2 YVMA; settings: read-out: HER2 YVMA, potency code (IC50)
Experimental: as §2

T2 sequence (P00533 25-1210 N540K): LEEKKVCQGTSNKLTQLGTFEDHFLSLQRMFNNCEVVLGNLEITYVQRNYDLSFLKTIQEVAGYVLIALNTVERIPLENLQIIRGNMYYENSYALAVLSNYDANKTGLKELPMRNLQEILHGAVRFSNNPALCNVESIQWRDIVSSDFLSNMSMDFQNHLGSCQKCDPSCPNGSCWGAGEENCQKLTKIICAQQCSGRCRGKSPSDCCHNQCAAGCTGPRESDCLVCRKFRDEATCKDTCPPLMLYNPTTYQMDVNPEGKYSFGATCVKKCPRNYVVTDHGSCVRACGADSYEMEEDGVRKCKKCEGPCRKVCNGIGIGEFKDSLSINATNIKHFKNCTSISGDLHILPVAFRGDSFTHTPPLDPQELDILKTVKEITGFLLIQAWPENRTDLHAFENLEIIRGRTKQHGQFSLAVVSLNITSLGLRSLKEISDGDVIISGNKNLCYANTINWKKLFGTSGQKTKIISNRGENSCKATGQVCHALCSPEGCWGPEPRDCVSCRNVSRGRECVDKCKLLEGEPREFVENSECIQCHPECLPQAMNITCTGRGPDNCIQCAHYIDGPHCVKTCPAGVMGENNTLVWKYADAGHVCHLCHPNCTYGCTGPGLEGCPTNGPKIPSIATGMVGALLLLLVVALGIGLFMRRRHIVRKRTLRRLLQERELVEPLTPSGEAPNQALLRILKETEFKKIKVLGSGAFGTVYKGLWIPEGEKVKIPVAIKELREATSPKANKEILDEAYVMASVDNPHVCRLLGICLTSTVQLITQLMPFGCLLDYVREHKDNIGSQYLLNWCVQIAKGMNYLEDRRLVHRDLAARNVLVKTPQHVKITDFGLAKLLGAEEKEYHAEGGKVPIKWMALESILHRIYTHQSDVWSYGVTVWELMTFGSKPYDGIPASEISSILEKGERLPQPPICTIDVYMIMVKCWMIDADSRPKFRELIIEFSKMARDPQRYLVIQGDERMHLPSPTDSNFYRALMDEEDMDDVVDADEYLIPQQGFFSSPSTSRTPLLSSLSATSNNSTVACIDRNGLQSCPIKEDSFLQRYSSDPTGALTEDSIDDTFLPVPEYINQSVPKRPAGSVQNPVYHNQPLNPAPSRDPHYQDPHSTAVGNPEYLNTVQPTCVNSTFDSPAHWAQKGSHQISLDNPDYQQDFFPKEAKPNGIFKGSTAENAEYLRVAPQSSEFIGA
T1 sequence (P00533 with tags, fused parts or gaps DELINS30-297G): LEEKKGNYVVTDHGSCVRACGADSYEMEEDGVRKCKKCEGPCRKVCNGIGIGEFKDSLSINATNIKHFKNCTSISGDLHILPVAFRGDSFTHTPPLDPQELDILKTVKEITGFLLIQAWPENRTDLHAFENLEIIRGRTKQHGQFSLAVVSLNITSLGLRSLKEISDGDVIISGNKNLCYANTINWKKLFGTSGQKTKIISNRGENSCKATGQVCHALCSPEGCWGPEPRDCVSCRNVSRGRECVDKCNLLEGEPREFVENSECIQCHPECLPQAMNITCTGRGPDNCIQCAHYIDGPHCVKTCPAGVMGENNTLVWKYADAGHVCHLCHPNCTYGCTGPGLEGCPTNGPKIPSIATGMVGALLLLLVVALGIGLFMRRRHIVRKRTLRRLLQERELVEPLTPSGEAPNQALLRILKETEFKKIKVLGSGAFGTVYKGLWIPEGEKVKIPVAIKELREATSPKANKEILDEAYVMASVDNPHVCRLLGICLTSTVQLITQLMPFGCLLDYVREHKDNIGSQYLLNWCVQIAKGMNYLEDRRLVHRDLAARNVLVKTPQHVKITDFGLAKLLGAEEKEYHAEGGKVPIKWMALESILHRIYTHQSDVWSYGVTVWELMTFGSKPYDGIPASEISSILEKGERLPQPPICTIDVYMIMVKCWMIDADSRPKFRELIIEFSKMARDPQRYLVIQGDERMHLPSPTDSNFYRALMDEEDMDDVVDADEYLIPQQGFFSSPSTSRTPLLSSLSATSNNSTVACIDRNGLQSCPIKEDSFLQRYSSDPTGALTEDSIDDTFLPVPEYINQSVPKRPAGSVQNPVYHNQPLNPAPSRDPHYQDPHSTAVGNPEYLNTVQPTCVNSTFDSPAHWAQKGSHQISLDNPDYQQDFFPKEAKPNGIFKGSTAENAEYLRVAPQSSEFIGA
T4 sequence (P04626 23-1255 S310F): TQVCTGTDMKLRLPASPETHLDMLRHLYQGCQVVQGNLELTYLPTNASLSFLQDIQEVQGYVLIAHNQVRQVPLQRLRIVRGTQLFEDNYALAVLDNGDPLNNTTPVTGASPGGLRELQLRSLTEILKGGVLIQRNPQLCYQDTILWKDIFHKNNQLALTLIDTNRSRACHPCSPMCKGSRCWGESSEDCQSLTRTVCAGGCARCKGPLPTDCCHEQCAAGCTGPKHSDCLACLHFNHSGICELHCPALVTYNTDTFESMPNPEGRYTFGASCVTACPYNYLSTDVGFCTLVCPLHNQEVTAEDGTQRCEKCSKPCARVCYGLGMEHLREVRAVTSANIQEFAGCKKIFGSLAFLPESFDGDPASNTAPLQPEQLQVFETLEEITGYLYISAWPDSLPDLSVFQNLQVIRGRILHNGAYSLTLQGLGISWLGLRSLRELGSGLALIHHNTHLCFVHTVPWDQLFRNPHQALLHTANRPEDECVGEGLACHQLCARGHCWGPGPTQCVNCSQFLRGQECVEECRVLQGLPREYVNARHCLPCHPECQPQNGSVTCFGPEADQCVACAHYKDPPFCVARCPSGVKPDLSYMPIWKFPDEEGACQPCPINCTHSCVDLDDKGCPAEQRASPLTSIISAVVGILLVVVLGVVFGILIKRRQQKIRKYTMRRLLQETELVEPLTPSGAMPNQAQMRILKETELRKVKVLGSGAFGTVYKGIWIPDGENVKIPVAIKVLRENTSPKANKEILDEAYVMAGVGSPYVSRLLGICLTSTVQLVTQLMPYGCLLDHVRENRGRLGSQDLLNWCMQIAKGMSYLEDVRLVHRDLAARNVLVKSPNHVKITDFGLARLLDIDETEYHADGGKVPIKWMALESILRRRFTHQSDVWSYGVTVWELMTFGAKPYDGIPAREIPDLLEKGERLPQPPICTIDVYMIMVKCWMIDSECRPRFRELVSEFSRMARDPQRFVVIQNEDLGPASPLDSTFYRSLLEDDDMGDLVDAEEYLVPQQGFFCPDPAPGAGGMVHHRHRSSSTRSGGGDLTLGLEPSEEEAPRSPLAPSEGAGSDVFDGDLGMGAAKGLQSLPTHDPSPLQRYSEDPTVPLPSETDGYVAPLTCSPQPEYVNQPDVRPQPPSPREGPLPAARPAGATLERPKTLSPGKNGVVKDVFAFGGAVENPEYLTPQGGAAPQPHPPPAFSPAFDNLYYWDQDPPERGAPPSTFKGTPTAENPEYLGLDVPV
T3 sequence (P04626 with tags, fused parts or gaps INS775YVMA): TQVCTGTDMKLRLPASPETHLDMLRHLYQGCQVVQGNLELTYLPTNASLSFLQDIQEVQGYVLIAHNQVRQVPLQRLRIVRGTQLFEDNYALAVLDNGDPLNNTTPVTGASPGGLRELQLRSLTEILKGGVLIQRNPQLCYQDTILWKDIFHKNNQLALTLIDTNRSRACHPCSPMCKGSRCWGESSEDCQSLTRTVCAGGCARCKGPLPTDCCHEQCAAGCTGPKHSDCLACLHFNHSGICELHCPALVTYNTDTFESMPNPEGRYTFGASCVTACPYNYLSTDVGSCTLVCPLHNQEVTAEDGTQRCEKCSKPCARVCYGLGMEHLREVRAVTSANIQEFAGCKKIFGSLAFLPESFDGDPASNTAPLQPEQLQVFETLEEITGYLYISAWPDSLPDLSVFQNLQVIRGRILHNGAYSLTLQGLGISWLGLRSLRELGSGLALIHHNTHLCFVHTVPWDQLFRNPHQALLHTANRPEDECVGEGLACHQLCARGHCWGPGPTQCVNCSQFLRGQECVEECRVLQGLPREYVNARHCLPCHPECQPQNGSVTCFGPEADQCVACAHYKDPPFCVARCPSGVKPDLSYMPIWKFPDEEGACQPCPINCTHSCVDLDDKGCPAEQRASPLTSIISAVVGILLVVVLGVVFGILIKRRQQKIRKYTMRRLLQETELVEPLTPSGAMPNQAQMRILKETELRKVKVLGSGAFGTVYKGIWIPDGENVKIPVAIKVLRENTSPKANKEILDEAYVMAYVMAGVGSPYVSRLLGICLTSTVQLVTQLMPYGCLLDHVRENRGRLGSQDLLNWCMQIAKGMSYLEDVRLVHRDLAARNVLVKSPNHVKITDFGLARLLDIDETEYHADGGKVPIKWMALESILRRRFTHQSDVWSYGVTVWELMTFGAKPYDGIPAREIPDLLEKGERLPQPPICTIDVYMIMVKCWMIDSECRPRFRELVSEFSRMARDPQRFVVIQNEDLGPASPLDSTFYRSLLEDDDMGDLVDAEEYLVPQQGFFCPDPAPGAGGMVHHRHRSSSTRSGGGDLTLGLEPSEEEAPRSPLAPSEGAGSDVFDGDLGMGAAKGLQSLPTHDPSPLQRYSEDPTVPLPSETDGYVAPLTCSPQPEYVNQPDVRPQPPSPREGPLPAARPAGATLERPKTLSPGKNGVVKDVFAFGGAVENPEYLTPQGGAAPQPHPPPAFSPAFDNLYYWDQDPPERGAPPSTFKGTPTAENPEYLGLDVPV

| Structure (SMILES) | IC50 [1] | IC50 [2] | IC50 [3] | IC50 [4] | IC50 [5] | IC50 [6] | IC50 [7] | IC50 [8] |
| --- | --- | --- | --- | --- | --- | --- | --- | --- |
| C=CC(=O)Nc1cc2c(Nc3cc(Cl)c(OCc4cccc(F)c4)cc3F)ncnc2cc1OCCN1CC2CCC(C1)O2 [compound 147] | 50 to 100 nM | 500 to 1000 nM | 200 to 300 nM | 500 to 1000 nM | 50 to 100 nM | 50 to 100 nM | 50 to 100 nM | 200 to 300 nM |
| CC#CC(=O)Nc1cc2c(Nc3cc(Cl)c(OCc4cccc(F)c4)cc3F)ncnc2cc1OCCN1CC2CCC(C1)O2 [compound 148, N-(7-(2-(8-oxa-3-azabicyclo[3.2.1]octan-3-yl)ethoxy)-4-((5-chloro-2-fluoro-4-((3-fluorobenzyl)oxy)phenyl)amino)quinazolin-6-yl)but-2-ynamide] | 100 to 200 nM | 200 to 300 nM | 50 to 100 nM | 200 to 300 nM | 20 to 30 nM | 20 to 30 nM | 100 to 200 nM | 50 to 100 nM |
| CC#CC(=O)Nc1cc2c(Nc3cc(Cl)c(OCc4cccc(F)c4)cc3F)ncnc2cc1OCCN1CCOCC1 [compound 149, N-(4-((5-chloro-2-fluoro-4-((3-fluorobenzyl)oxy)phenyl)amino)-7-(2-morpholinoethoxy)quinazolin-6-yl)but-2-ynamide] | 50 to 100 nM | 100 to 200 nM | 30 to 50 nM | 100 to 200 nM | 10 to 20 nM | 10 to 20 nM | 50 to 100 nM | 30 to 50 nM |
| CC#CC(=O)Nc1cc2c(Nc3cc(Cl)c(OCc4cccc(F)c4)cc3F)ncnc2cc1OCCCN1CCOCC1 [compound 150, N-(4-((5-chloro-2-fluoro-4-((3-fluorobenzyl)oxy)phenyl)amino)-7-(3-morpholinopropoxy)quinazolin-6-yl)but-2-ynamide] | 50 to 100 nM | 200 to 300 nM | 30 to 50 nM | 200 to 300 nM | 10 to 20 nM | 10 to 20 nM | 50 to 100 nM | 30 to 50 nM |
| CC#CC(=O)Nc1cc2c(Nc3cc(Cl)c(OCc4cccc(F)c4)cc3F)ncnc2cc1O[C@@H]1CCN(C)C1 [compound 151, (R)-N-(4-((5-chloro-2-fluoro-4-((3-fluorobenzyl)oxy)phenyl)amino)-7-((1-methylpyrrolidin-3-yl)oxy)quinazolin-6-yl)but-2-ynamide] | 50 to 100 nM | 100 to 200 nM | 100 to 200 nM | 100 to 200 nM | 10 to 20 nM | 10 to 20 nM | 50 to 100 nM | 100 to 200 nM |
| CC#CC(=O)Nc1cc2c(Nc3cc(Cl)c(OCc4cccc(F)c4)cc3F)ncnc2cc1OCCN1CC(OC)C1 [compound 152, N-(4-((5-chloro-2-fluoro-4-((3-fluorobenzyl)oxy)phenyl)amino)-7-(2-(3-methoxyazetidin-1-yl)ethoxy)quinazolin-6-yl)but-2-ynamide] | 30 to 50 nM | 100 to 200 nM | 50 to 100 nM | 100 to 200 nM | 5 to 10 nM | 5 to 10 nM | 30 to 50 nM | 50 to 100 nM |
| C=CC(=O)Nc1cc2c(Nc3ccc(OCc4cccc(F)n4)c(Cl)c3)ncnc2cc1OCCCN1CCOCC1 [compound 153] | 30 to 50 nM | 500 to 1000 nM | 50 to 100 nM | 500 to 1000 nM | 10 to 20 nM | 10 to 20 nM | 30 to 50 nM | 50 to 100 nM |
| C=CC(=O)Nc1cc2c(Nc3ccc(OCc4cccc(F)n4)c(Cl)c3)ncnc2cc1OCCN1CCOCC1 [compound 154] | 30 to 50 nM | 500 to 1000 nM | 100 to 200 nM | 500 to 1000 nM | 30 to 50 nM | 30 to 50 nM | 30 to 50 nM | 100 to 200 nM |
| C=CC(=O)Nc1cc2c(Nc3ccc(OCc4cccc(F)n4)c(Cl)c3)ncnc2cc1OCCCN1CC(OC)C1 [compound 155] | 30 to 50 nM | 300 to 500 nM | 30 to 50 nM | 300 to 500 nM | 10 to 20 nM | 10 to 20 nM | 30 to 50 nM | 30 to 50 nM |
| C=CC(=O)Nc1cc2c(Nc3ccc(OCc4cccc(F)n4)c(Cl)c3)ncnc2cc1OCCN1CC2CCC(C1)O2 [compound 156] | 50 to 100 nM | > 1000 nM | 200 to 300 nM | > 1000 nM | 30 to 50 nM | 30 to 50 nM | 50 to 100 nM | 200 to 300 nM |
| C=CC(=O)Nc1cc2c(Nc3ccc(OCc4cccc(F)n4)c(Cl)c3)ncnc2cc1OCCN1CC(OC)C1 [compound 157] | 30 to 50 nM | 500 to 1000 nM | 300 to 500 nM | 500 to 1000 nM | 30 to 50 nM | 30 to 50 nM | 30 to 50 nM | 300 to 500 nM |
| C=CC(=O)Nc1cc2c(Nc3ccc(OCc4cccc(F)n4)c(Cl)c3)ncnc2cc1OCCN1CCN(C)CC1 [compound 158] | 30 to 50 nM | 100 to 200 nM | 100 to 200 nM | 100 to 200 nM | 30 to 50 nM | 30 to 50 nM | 30 to 50 nM | 100 to 200 nM |
| C=CC(=O)Nc1cc2c(Nc3ccc(OCc4cccc(F)c4)c(Cl)c3)ncnc2cc1OCCCN1C[C@@H]2C[C@H]1CO2 [compound 159] | 100 to 200 nM | 300 to 500 nM | 300 to 500 nM | 300 to 500 nM | 50 to 100 nM | 50 to 100 nM | 100 to 200 nM | 300 to 500 nM |
| C=CC(=O)Nc1cc2c(Nc3ccc(OCc4cccc(F)c4)c(Cl)c3)ncnc2cc1OCCCN1C[C@H]2C[C@@H]1CO2 [compound 160] | 100 to 200 nM | 300 to 500 nM | 300 to 500 nM | 300 to 500 nM | 100 to 200 nM | 100 to 200 nM | 100 to 200 nM | 300 to 500 nM |
| C=CC(=O)Nc1cc2c(Nc3ccc(OCc4cccc(F)n4)c(Cl)c3)ncnc2cc1OCCCN1C[C@@H]2C[C@H]1CO2 [compound 161] | 30 to 50 nM | 200 to 300 nM | 100 to 200 nM | 200 to 300 nM | 30 to 50 nM | 30 to 50 nM | 30 to 50 nM | 100 to 200 nM |
| C=CC(=O)Nc1cc2c(Nc3ccc(OCc4cccc(F)n4)c(Cl)c3)ncnc2cc1OCCCN1C[C@H]2C[C@@H]1CO2 [compound 162] | 30 to 50 nM | 300 to 500 nM | 100 to 200 nM | 300 to 500 nM | 30 to 50 nM | 30 to 50 nM | 30 to 50 nM | 100 to 200 nM |
| C=CC(=O)Nc1cc2c(Nc3ccc(OCc4ccncn4)c(Cl)c3)ncnc2cc1OCCCN1CCOCC1 [compound 163] | 50 to 100 nM | > 1000 nM | 100 to 200 nM | > 1000 nM | 30 to 50 nM | 30 to 50 nM | 50 to 100 nM | 100 to 200 nM |
| CC#CC(=O)Nc1cc2c(Nc3ccc(OCc4ccncn4)c(Cl)c3)ncnc2cc1OCCCN1CCOCC1 [compound 164, N-(4-((3-chloro-4-(pyrimidin-4-ylmethoxy)phenyl)amino)-7-(3-morpholinopropoxy)quinazolin-6-yl)but-2-ynamide] | 50 to 100 nM | 300 to 500 nM | 100 to 200 nM | 300 to 500 nM | 30 to 50 nM | 30 to 50 nM | 50 to 100 nM | 100 to 200 nM |
| CC#CC(=O)Nc1cc2c(Nc3ccc(OCc4cccnn4)c(Cl)c3)ncnc2cc1OCCCN1CCOCC1 [compound 165, N-(4-((3-chloro-4-(pyridazin-3-ylmethoxy)phenyl)amino)-7-(3-morpholinopropoxy)quinazolin-6-yl)but-2-ynamide] | 30 to 50 nM | 100 to 200 nM | 50 to 100 nM | 100 to 200 nM | 10 to 20 nM | 10 to 20 nM | 30 to 50 nM | 50 to 100 nM |
| C=CC(=O)Nc1cc2c(Nc3ccc(OCc4ncccn4)c(Cl)c3)ncnc2cc1OCCCN1CCOCC1 [compound 166] | 30 to 50 nM | > 1000 nM | 100 to 200 nM | > 1000 nM | 30 to 50 nM | 30 to 50 nM | 30 to 50 nM | 100 to 200 nM |
| C=CC(=O)Nc1cc2c(Nc3ccc(OCc4cccnn4)c(Cl)c3)ncnc2cc1OCCCN1CCOCC1 [compound 167] | 30 to 50 nM | > 1000 nM | 50 to 100 nM | > 1000 nM | 10 to 20 nM | 10 to 20 nM | 30 to 50 nM | 50 to 100 nM |
| CC#CC(=O)Nc1cc2c(Nc3ccc(OCc4ncccn4)c(Cl)c3)ncnc2cc1OCCCN1CCOCC1 [compound 168, N-(4-((3-chloro-4-(pyrimidin-2-ylmethoxy)phenyl)amino)-7-(3-morpholinopropoxy)quinazolin-6-yl)but-2-ynamide] | 30 to 50 nM | 200 to 300 nM | 50 to 100 nM | 200 to 300 nM | 20 to 30 nM | 20 to 30 nM | 30 to 50 nM | 50 to 100 nM |
